Reference: patent US20260083865A1, “PROSTATE SPECIFIC MEMBRANE ANTIGEN (PSMA) LIGANDS AND USE THEREOF” (priority 2022, published 2026)
Numbered stars: 1 amine (or outer) side, 2 acyl side, 3 side chain; on linkers, the order of the positions; unused ones are H or OH. Bridge positions count the residues as written; N and C are the ends. Square brackets hold non-standard residues; d marks the D form. Peptide text beside a SMILES is read from it. * marks the point of attachment. TtdsdLys(DOTA)NH2 = NC(=O)[C@@H](CCCCNC(=O)CN1CCN(CC(=O)O)CCN(CC(=O)O)CCN(CC(=O)O)CC1)NC(=O)CCC(=O)NCCCOCCOCCOCCCN*; X11 = O=C(CCCC[C@@H]1SC[C@@H]2NC(=O)N[C@@H]21)NCCCOCCOCCOCCCNC(=O)CCC(=O)NCCCOCCOCCOCCCN*; DOTA = O=C(O)CN1CCN(CC(=O)O)CCN(CC(=O)*)CCN(CC(=O)O)CC1; Phe(4-CH2COOH) = N[C@@H](Cc1ccc(CC(=O)O)cc1)C(=O)O; Phe(3-Cl) = N[C@@H](Cc1cccc(Cl)c1)C(=O)O; Phe(4-Cl) = N[C@@H](Cc1ccc(Cl)cc1)C(=O)O; tBuAla = CC(C)(C)C[C@H](N)C(=O)O; X1 = O=C(CC1CCN([*:1])CC1)[*:2]; Suc = O=C(CCC(=O)[*:2])[*:1]; Tle = CC(C)(C)[C@H](N)C(=O)O; Pyridin(2-yl) = c1ccc(*)nc1; 4Amb = NCc1ccc(C(=O)O)cc1; Nle = CCCC[C@H](N)C(=O)O; Orn = NCCC[C@H](N)C(=O)O; Hexanoyl = CCCCCC(=O)*; Aib = CC(C)(N)C(=O)O; CO = O=C([*:1])[*:2]; CH2 = C([*:1])[*:2]; βAla = NCCC(=O)O; NHBu = CCCCN*

Tests used:
[1] = molecular target: T1, PSMA-expressing C4-2 cells (Homo sapiens, UniProt Q04609); assay: FACS binding assay (competition with 50 nM PSM-0183); settings: FACS binding, C4-2 cells, category; read-out: pIC50 [C4-2] CAT (converted)
T1 construct: PSMA-expressing C4-2 cells (ATCC, Cat. No. CRL-3314) were cultured in RPMI-1640; host or cells: C4-2 cells
T1 sequence (Q04609 whole entry): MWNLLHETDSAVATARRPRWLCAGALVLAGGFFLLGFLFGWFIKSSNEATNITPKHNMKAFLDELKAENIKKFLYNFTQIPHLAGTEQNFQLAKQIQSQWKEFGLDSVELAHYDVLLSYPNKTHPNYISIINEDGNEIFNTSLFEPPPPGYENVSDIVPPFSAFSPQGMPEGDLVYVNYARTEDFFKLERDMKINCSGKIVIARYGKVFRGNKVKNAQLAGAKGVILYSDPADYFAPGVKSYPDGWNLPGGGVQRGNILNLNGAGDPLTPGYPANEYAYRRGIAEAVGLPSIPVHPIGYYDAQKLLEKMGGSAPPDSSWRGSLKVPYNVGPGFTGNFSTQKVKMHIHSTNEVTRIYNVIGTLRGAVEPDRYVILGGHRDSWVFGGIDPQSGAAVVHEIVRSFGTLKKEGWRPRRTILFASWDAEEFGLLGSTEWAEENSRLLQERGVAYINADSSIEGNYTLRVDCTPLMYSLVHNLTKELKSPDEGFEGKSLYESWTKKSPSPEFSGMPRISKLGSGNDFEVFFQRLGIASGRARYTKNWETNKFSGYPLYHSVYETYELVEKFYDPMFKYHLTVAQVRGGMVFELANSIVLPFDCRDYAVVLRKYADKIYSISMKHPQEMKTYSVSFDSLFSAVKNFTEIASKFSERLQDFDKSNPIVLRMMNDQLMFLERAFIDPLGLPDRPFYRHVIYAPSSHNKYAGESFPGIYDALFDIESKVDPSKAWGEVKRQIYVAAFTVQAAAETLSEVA
In short: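 C4-2 cells were incubated 1 h at 4 °C with 50 nM AF488-labelled peptide PSM-0183 plus increasing test compound concentrations, then washed twice in ice-cold buffer. Median fluorescence in the AF488 channel was read by flow cytometry. IC50/pIC50 was derived by 4PL fitting of MFI versus concentration.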

[2] = molecular target: T2, Fc-fusion protein of human PSMA (hPSMA-Fc) (Homo sapiens, UniProt Q04609); assay: Surface plasmon resonance assay (Biacore T200, single cycle kinetic); type: binding; settings: PSMA SPR assay, category; read-out: pKD CAT (converted)
T2 construct: purchased Acro Biosystems PSA-H5264
T2 sequence (Q04609 44-750 limits assumed): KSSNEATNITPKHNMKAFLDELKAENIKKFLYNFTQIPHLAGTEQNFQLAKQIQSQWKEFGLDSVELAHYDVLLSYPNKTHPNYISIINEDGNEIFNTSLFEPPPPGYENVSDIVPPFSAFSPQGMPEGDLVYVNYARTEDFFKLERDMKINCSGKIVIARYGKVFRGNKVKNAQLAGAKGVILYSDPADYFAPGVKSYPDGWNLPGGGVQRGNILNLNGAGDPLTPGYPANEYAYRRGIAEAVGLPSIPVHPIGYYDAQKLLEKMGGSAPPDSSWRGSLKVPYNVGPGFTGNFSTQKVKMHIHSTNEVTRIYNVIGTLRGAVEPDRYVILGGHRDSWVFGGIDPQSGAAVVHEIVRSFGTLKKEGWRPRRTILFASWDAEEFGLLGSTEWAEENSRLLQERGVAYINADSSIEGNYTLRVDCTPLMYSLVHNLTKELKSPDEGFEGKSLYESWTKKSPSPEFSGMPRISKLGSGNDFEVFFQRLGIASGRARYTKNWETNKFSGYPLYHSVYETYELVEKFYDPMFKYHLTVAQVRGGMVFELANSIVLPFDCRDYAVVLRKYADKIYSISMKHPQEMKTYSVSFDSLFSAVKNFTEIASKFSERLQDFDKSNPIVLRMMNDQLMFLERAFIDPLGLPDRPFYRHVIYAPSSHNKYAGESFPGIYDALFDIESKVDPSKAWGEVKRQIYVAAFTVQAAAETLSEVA
In short: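 hPSMA-Fc was captured (~1000 RU) on an Fc-binding-peptide CM5 chip, and compounds were run in single cycle kinetic mode at 25° C in HBST with 0.1% DMSO. Double-blank-corrected sensorgrams were fitted to a 1:1 Langmuir model to give KD, reported as pKD.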

SMILES	IC50 [1] [nM]	Kd [2] [nM]
CC(=O)N[C@H](C(=O)NC(C)(C)C(=O)N[C@@H](Cc1ccccc1)C(=O)N[C@H]1CSSC[C@@H](C(=O)N[C@@H](CC(C)(C)C)C(N)=O)NC(=O)[C@H](CC(N)=O)NC(=O)C(C)(C)NC(=O)[C@H](CCCNC(=N)N)NC(=O)[C@H](CCCCN)NC1=O)[C@@H](C)O [PSM-0560, Ac-Thr-Aib-Phe-[Cys-Lys-Arg-Aib-Asn-Cys]-Npg-NH2] (Ac-T[Aib]FCKR[Aib]NC[tBuAla]-NH2; disulfide 4-9)	< 200	12.6 to 126
CCCC[C@H](NC(=O)[C@@H]1CSSC[C@H](NC(=O)[C@H](Cc2ccccc2)NC(=O)[C@H](C)NC(=O)[C@@H](NC(C)=O)[C@@H](C)O)C(=O)N[C@@H](CCCCN)C(=O)N[C@@H](CCCNC(=N)N)C(=O)N[C@@H](C)C(=O)N[C@@H](CC(N)=O)C(=O)N1)C(=O)N[C@H](C(=O)N[C@@H](C)C(N)=O)[C@@H](C)O [PSM-0562, Ac-Thr-Als-Phe-[Cys-Lys-Arg-Ala-Asn-Cys]-Nle-Thr-Ala-NH2] (Ac-TAFCKRANC[Nle]TA-NH2; disulfide 4-9)	200 to 1260	126 to 501
CC(=O)N[C@H](C(=O)NC(C)(C)C(=O)N[C@@H](Cc1ccccc1)C(=O)N[C@H]1CSSC[C@@H](C(=O)N[C@H](C(=O)N[C@H](C(N)=O)[C@@H](C)O)C(C)(C)C)NC(=O)[C@H](CCC(=O)O)NC(=O)C(C)(C)NC(=O)[C@H](CCCNC(=N)N)NC(=O)[C@H](CCCCN)NC1=O)[C@@H](C)O [PSM-0563, Ac-Thr-Aib-Phe-[Cys-Lys-Arg-Aib-Glu-Cys]-Tle-Thr-NH2] (Ac-T[Aib]FCKR[Aib]EC[Tle]T-NH2; disulfide 4-9)	< 200	12.6 to 126
CCCC[C@H](NC(=O)[C@@H]1CSSC[C@H](NC(=O)[C@H](Cc2ccccc2)NC(=O)[C@H](C)NC(=O)[C@@H](NC(C)=O)[C@@H](C)O)C(=O)N[C@@H](CCCCN)C(=O)N2CCC[C@H]2C(=O)N[C@@H](C)C(=O)N[C@@H](CC(N)=O)C(=O)N1)C(=O)N[C@H](C(=O)N[C@@H](CC(=O)O)C(N)=O)[C@@H](C)O [PSM-0564, Ac-Thr-Als-Phe-[Cys-Lys-Pro-Ala-Asn-Cys]-Nle-Thr-Asp-NH2] (Ac-TAFCKPANC[Nle]TD-NH2; disulfide 4-9)	> 3160	> 501
CC(=O)N[C@H](C(=O)NC(C)(C)C(=O)N[C@@H](Cc1ccccc1)C(=O)N[C@H]1CSSC[C@@H](C(=O)N[C@H](C(=O)N[C@H](C(=O)N[C@@H](CC(=O)O)C(N)=O)[C@@H](C)O)C(C)(C)C)NC(=O)[C@H](CC(N)=O)NC(=O)[C@H](C)NC(=O)[C@H](CCCNC(=N)N)NC(=O)[C@H](CCCCN)NC1=O)[C@@H](C)O [PSM-0565, Ac-Thr-Aib-Phe-[Cys-Lys-Arg-Ala-Asn-Cys]-Tle-Thr-Asp-NH2] (Ac-T[Aib]FCKRANC[Tle]TD-NH2; disulfide 4-9)	< 200	< 12.6
C[C@@H](O)[C@H](NC(=O)[C@@H](NC(=O)[C@@H]1CSSC[C@H](NC(=O)[C@H](Cc2ccc(CC(=O)O)cc2)NC(=O)C(C)(C)NC(=O)[C@@H](NC(=O)CC2CCN(C(=O)CN3CCN(CC(=O)O)CCN(CC(=O)O)CCN(CC(=O)O)CC3)CC2)[C@@H](C)O)C(=O)N[C@@H](CCCCN)C(=O)N[C@@H](CCCNC(=N)N)C(=O)NC(C)(C)C(=O)N[C@@H](CC(N)=O)C(=O)N1)C(C)(C)C)C(N)=O [PSM-0566, DOTA-Cmp-Thr-Aib-Fac-[Cys-Lys-Arg-Aib-Asn-Cys]-Tle-Thr-NH2] ({DOTA}-[X1]T[Aib][Phe(4-CH2COOH)]CKR[Aib]NC[Tle]T-NH2; disulfide 5-10)	> 3160	> 501
CC(=O)N[C@H](C(=O)NC(C)(C)C(=O)N[C@@H](Cc1ccccc1)C(=O)N[C@H]1CSCSC[C@@H](C(=O)N[C@H](C(=O)N[C@H](C(=O)N[C@@H](CC(=O)O)C(N)=O)[C@@H](C)O)C(C)(C)C)NC(=O)[C@H](CC(N)=O)NC(=O)[C@H](C)NC(=O)[C@H](CCCNC(=N)N)NC(=O)[C@H](CCCCN)NC1=O)[C@@H](C)O [PSM-0567, Ac-Thr-Aib-Phe-[Smc-Lys-Arg-Ala-Asn-Cys]-Tle-Thr-Asp-NH2] (Ac-T[Aib]FCKRANC[Tle]TD-NH2; linker 4-9 via CH2)	< 200	< 12.6
CCCCCC(=O)N[C@H](C(=O)N[C@@H](C)C(=O)N[C@@H](Cc1ccccc1)C(=O)N[C@H]1CSSC[C@@H](C(=O)N[C@H](C(=O)N[C@H](C(=O)N[C@@H](CC(=O)O)C(=O)NCCCOCCOCCOCCCNC(=O)CCC(=O)N[C@H](CCCCNC(=O)CN2CCN(CC(=O)O)CCN(CC(=O)O)CCN(CC(=O)O)CC2)C(N)=O)[C@@H](C)O)C(C)(C)C)NC(=O)[C@H](CC(N)=O)NC(=O)[C@H](C)NC(=O)[C@H](CCCNC(=N)N)NC(=O)[C@H](CCCCN)NC1=O)[C@@H](C)O [PSM-0568, Hex-Thr-Ala-Phe-[Cys-Lys-Arg-Ala-Asn-Cys]-Tle-Thr-Asp-Ttds-lys(DOTA)-NH2] (Hexanoyl-TAFCKRANC[Tle]TD-{TtdsdLys(DOTA)NH2}; disulfide 4-9)	< 200	12.6 to 126
CC(=O)NC(=N)NCCC[C@@H]1NC(=O)[C@H](CCCCN)NC(=O)[C@@H](NC(=O)[C@H](Cc2ccc(Cl)cc2)NC(=O)C(C)(C)NC(=O)[C@@H](NC(C)=O)[C@@H](C)O)CSSC[C@@H](C(=O)N[C@H](C(=O)N[C@H](C(N)=O)[C@@H](C)O)C(C)(C)C)NC(=O)[C@H](CC(N)=O)NC(=O)C(C)(C)NC1=O [PSM-0569, Ac-Thr-Aib-Pcf-[Cys-Lys-Arg(Ac)-Aib-Asn-Cys]-Tle-Thr-NH2] (Ac-T[Aib][Phe(4-Cl)]CKR(Ac)[Aib]NC[Tle]T-NH2; disulfide 4-9)	< 200	< 12.6
CCCC[C@@H]1NC(=O)[C@@H](NC(=O)[C@H](Cc2ccc(Cl)cc2)NC(=O)C(C)(C)NC(=O)[C@@H](NC(C)=O)[C@@H](C)O)CSSC[C@@H](C(=O)N[C@H](C(=O)N[C@H](C(N)=O)[C@@H](C)O)C(C)(C)C)NC(=O)[C@H](CC(N)=O)NC(=O)C(C)(C)NC(=O)[C@H](CCCNC(=N)NC(C)=O)NC1=O [PSM-0570, Ac-Thr-Aib-Pcf-[Cys-Nle-Arg(Ac)-Aib-Asn-Cys]-Tle-Thr-NH2] (Ac-T[Aib][Phe(4-Cl)]C[Nle]R(Ac)[Aib]NC[Tle]T-NH2; disulfide 4-9)	< 200	12.6 to 126
CCCCNC(=O)N[C@H](C(=O)NC(C)(C)C(=O)N[C@@H](Cc1cccc(Cl)c1)C(=O)N[C@H]1CSSC[C@@H](C(=O)N[C@H](C(=O)N[C@H](C(=O)N2CCC(CC(=O)N[C@H](CCCCNC(=O)CN3CCN(CC(=O)O)CCN(CC(=O)O)CCN(CC(=O)O)CC3)C(N)=O)CC2)[C@@H](C)O)C(C)(C)C)NC(=O)[C@H](CC(N)=O)NC(=O)C(C)(C)NC(=O)[C@H](CCCNc2ccccn2)NC(=O)[C@H](CCCCN)NC1=O)[C@@H](C)O [PSM-0571, nBuCAyl-Thr-Aib-Mcf-[Cys-Lys-Opy-Aib-Asn-Cys]-Tle-Thr-Cmp-lys(DOTA)-NH2] ({NHBu-CO}-T[Aib][Phe(3-Cl)]CK[Orn](Pyridin(2-yl))[Aib]NC[Tle]T[X1][dK](DOTA)-NH2; disulfide 4-9)	200 to 1260	12.6 to 126
CC(C)(NC(=O)c1ccc(CNC(=O)CN2CCN(CC(=O)O)CCN(CC(=O)O)CCN(CC(=O)O)CC2)cc1)C(=O)N[C@@H](Cc1ccccc1)C(=O)N[C@H]1CSSC[C@@H](C(=O)N[C@H](C(=O)NCCC(N)=O)C(C)(C)C)NC(=O)[C@H](CC(N)=O)NC(=O)C(C)(C)NC(=O)[C@H](CCCNC(=N)N)NC(=O)[C@H](CCCCN)NC1=O [PSM-0574, DOTA-Pamb-Aib-Phe-[Cys-Lys-Arg-Aib-Asn-Cys]-Tle-Bal-NH2] ({DOTA-4Amb}-[Aib]FCKR[Aib]NC[Tle][βAla]-NH2; disulfide 3-8)	< 200	12.6 to 126
C[C@@H](O)[C@H](NC(=O)[C@@H](NC(=O)[C@@H]1CSSC[C@H](NC(=O)[C@H](Cc2ccc(Cl)cc2)NC(=O)C(C)(C)NC(=O)[C@@H](NC(=O)CCC(=O)NCCCOCCOCCOCCCNC(=O)CCC(=O)NCCCOCCOCCOCCCNC(=O)CCCC[C@@H]2SC[C@@H]3NC(=O)N[C@@H]32)[C@@H](C)O)C(=O)N[C@@H](CCCCN)C(=O)N[C@@H](CCCNC(=N)N)C(=O)NC(C)(C)C(=O)N[C@@H](CC(N)=O)C(=O)N1)C(C)(C)C)C(N)=O [PSM-0575, Bio-Ttds-Ttds-Thr-Aib-Pcf-[Cys-Lys-Arg-Aib-Asn-Cys]-Tle-Thr-NH2] ({X11-Suc}-T[Aib][Phe(4-Cl)]CKR[Aib]NC[Tle]T-NH2; disulfide 4-9)	< 200	< 12.6
CCCCCC(=O)N[C@H](C(=O)NC(C)(C)C(=O)N[C@@H](Cc1ccccc1)C(=O)N[C@H]1CSSC[C@@H](C(=O)N[C@H](C(=O)N[C@H](C(=O)NCCCOCCOCCOCCCNC(=O)CCC(=O)N[C@H](CCCCNC(=O)CN2CCN(CC(=O)O)CCN(CC(=O)O)CCN(CC(=O)O)CC2)C(N)=O)[C@@H](C)O)C(C)(C)C)NC(=O)[C@H](CC(N)=O)NC(=O)C(C)(C)NC(=O)[C@H](CCCNC(=N)N)NC(=O)[C@H](CCCCN)NC1=O)[C@@H](C)O [PSM-0576, Hex-Thr-Aib-Phe-[Cys-Lys-Arg-Aib-Asn-Cys]-Tle-Thr-Ttds-lys(DOTA)-NH2] (Hexanoyl-T[Aib]FCKR[Aib]NC[Tle]T-{TtdsdLys(DOTA)NH2}; disulfide 4-9)	< 200	< 12.6
